Where two headings read alike, the source gives them in different places.
Experiments:
Assay in all cases: HotSpot kinase profiling
Type in all cases: biochemical
PKN3/PRK3 = biological target: T1, PKN3/PRK3 (Homo sapiens, UniProt Q6P5Z2)
T1 construct: purchased Reaction Biology Corp
Procedure, shortened: (§1)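 Radiometric kinase assay with P81 filter capture; each kinase was added to fresh substrate plus cofactors in reaction buffer and incubated 2 h at room temperature. Unreacted phosphate was washed off with 0.1% phosphoric acid before detection; percent inhibition is relative to DMSO control, averaged over replicates.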

RSK2 = biological target: T2, RSK2 (Homo sapiens, UniProt P51812)
T2 construct: purchased Reaction Biology Corp
T2 sequence (P51812 whole entry): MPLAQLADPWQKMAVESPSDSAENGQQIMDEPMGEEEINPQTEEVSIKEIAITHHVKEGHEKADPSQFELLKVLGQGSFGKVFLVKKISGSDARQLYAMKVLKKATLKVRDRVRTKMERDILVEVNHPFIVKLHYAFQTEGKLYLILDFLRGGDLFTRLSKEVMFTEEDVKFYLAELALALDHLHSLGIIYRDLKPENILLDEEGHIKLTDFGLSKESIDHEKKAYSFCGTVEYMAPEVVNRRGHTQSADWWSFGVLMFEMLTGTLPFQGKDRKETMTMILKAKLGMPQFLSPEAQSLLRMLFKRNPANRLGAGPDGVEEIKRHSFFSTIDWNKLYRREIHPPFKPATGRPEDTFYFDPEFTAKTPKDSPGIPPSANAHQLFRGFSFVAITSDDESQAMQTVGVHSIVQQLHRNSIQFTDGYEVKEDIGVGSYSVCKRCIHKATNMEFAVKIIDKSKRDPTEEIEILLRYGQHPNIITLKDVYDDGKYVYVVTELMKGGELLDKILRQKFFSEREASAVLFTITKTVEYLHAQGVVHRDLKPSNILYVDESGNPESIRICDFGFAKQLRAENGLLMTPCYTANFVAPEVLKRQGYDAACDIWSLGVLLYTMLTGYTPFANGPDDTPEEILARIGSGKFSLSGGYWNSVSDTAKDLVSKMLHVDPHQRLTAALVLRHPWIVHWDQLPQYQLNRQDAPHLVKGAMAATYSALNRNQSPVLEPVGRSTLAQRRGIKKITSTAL
Procedure, shortened: as §1

NEK1 = biological target: T3, NEK1 (Homo sapiens, UniProt Q96PY6)
T3 construct: purchased Reaction Biology Corp
T3 sequence (Q96PY6 1-1258): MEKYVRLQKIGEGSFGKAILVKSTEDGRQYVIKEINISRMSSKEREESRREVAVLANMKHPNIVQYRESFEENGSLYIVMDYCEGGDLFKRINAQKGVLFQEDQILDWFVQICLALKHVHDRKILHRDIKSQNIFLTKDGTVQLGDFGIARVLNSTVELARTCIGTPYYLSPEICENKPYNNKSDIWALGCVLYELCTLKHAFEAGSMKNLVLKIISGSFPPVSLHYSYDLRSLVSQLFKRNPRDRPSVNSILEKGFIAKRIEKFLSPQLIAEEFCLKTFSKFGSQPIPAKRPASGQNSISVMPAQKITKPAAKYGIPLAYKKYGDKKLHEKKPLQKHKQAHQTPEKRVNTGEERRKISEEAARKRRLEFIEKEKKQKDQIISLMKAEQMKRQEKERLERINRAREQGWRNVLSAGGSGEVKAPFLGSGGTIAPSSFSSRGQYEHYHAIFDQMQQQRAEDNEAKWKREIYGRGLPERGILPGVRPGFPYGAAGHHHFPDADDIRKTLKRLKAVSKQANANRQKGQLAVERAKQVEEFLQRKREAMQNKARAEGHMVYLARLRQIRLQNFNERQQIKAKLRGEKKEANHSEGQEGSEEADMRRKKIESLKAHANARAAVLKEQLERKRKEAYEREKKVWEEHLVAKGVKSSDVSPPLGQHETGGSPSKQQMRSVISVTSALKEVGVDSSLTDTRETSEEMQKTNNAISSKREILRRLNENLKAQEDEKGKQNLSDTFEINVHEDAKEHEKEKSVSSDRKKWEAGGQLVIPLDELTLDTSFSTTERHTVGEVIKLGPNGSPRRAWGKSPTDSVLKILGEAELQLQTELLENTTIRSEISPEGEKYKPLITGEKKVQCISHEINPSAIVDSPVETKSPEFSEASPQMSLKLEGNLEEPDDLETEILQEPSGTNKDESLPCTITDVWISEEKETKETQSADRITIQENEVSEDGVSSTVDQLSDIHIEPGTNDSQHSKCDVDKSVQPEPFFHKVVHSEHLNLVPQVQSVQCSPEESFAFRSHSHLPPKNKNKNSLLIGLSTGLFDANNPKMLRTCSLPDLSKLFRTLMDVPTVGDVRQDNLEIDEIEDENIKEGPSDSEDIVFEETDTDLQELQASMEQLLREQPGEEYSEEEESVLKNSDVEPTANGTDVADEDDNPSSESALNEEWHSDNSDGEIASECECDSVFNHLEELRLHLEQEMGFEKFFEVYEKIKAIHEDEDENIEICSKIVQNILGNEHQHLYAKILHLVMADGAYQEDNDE
Procedure, shortened: as §1

ALK5/TGFBR1 = biological target: T4, ALK5/TGFBR1 (Homo sapiens, UniProt P36897)
T4 construct: purchased Reaction Biology Corp
T4 sequence (P36897 34-503): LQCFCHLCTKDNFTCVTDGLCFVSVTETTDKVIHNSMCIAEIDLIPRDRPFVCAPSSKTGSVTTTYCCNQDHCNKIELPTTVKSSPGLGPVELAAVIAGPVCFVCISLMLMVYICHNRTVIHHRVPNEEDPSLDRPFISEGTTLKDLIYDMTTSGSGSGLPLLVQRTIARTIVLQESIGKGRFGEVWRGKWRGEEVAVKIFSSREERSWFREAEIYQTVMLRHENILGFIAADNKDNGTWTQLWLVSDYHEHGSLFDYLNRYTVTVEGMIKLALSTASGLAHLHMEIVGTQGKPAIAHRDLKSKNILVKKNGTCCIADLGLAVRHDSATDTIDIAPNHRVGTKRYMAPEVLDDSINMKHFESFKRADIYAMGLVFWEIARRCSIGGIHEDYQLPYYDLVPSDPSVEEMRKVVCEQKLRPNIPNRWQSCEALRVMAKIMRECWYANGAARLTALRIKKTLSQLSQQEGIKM
Procedure, shortened: as §1

TRKB = biological target: T5, TRKB (Homo sapiens, UniProt Q16620)
T5 construct: purchased Reaction Biology Corp
T5 sequence (Q16620 32-822): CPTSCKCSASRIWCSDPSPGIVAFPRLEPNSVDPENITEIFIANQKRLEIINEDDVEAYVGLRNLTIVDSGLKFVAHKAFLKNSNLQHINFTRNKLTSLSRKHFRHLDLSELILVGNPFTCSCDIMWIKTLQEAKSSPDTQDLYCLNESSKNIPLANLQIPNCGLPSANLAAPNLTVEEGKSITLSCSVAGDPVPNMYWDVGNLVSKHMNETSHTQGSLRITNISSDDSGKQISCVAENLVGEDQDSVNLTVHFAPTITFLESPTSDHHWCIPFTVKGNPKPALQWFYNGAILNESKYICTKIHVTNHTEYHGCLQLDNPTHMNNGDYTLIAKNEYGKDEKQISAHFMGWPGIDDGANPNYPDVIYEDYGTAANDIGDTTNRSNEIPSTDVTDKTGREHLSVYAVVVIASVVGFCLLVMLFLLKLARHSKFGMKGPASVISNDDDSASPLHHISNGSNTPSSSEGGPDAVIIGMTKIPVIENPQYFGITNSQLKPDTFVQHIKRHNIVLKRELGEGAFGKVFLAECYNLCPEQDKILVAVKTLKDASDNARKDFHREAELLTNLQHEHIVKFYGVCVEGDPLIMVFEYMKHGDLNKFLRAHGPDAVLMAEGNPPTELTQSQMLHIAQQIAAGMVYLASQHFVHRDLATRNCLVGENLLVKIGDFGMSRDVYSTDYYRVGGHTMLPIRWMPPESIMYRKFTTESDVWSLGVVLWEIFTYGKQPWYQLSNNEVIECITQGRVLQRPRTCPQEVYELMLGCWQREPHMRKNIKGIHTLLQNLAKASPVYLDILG
Procedure, shortened: as §1

CDK1/cyclin B = biological target: T6, CDK1/cyclin B (Homo sapiens, UniProt P06493)
T6 construct: purchased Reaction Biology Corp
T6 sequence (P06493 whole entry): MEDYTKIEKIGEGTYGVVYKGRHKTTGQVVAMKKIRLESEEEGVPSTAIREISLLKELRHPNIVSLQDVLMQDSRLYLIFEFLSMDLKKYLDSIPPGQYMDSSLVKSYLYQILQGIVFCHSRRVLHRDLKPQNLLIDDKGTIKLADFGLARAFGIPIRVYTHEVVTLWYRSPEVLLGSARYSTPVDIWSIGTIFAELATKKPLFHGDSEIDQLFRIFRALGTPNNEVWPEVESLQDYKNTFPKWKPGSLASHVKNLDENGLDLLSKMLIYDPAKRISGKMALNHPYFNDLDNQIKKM
T6 sequence (P14635 whole entry partner): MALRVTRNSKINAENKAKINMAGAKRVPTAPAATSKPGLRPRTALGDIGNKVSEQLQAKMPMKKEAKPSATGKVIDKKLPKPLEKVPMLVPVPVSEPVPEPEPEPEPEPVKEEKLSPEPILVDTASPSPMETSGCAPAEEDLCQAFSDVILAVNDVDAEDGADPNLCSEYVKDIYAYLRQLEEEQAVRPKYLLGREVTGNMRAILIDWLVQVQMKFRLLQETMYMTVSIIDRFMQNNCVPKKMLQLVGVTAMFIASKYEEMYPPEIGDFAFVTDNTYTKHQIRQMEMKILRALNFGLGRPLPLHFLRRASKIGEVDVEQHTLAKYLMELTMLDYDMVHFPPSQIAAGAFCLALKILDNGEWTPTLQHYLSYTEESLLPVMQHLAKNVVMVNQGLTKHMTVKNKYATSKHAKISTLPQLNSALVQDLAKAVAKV
Procedure, shortened: as §1

KDR/VEGFR2 = biological target: T7, KDR/VEGFR2 (Homo sapiens, UniProt P35968)
T7 construct: purchased Reaction Biology Corp
T7 sequence (P35968 20-1356): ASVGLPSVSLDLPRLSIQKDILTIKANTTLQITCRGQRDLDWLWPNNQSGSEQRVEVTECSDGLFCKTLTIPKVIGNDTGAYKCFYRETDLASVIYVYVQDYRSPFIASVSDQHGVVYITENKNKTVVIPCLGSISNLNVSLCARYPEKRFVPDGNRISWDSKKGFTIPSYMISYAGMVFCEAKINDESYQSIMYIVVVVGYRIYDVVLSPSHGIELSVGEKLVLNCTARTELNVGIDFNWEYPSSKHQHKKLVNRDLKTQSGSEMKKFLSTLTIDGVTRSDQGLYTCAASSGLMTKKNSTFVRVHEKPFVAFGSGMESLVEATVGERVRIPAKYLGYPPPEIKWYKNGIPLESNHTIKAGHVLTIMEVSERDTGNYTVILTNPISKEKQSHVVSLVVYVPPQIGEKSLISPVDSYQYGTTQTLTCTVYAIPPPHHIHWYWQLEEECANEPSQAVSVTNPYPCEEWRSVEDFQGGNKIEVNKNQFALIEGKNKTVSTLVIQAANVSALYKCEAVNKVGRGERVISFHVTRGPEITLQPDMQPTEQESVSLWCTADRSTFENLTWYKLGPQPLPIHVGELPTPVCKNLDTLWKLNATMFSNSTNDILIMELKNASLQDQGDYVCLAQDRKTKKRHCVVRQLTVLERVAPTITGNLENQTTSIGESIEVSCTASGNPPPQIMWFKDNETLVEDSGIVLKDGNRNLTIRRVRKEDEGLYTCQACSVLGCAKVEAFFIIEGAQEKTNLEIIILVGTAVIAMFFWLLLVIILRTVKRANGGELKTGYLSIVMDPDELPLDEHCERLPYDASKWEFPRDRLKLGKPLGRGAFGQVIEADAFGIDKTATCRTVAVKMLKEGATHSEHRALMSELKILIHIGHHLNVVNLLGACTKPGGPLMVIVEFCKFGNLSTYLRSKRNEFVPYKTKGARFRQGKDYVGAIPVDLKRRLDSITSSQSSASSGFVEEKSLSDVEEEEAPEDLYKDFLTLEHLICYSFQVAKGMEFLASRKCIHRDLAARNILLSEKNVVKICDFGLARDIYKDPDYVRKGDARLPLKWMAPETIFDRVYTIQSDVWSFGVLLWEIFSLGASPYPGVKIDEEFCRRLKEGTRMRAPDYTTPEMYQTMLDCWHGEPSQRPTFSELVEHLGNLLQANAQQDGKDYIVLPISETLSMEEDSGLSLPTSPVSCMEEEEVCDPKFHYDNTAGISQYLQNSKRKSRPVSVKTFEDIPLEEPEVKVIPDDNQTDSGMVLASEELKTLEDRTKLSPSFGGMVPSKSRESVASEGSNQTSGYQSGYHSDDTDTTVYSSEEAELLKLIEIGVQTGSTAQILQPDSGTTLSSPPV
Procedure, shortened: as §1

[1] = read-out: % Enzyme Activity (relative to DMSO controls) Run 1
[2] = read-out: % Enzyme Activity (relative to DMSO controls) Run 2

T1 sequence (Q6P5Z2 whole entry): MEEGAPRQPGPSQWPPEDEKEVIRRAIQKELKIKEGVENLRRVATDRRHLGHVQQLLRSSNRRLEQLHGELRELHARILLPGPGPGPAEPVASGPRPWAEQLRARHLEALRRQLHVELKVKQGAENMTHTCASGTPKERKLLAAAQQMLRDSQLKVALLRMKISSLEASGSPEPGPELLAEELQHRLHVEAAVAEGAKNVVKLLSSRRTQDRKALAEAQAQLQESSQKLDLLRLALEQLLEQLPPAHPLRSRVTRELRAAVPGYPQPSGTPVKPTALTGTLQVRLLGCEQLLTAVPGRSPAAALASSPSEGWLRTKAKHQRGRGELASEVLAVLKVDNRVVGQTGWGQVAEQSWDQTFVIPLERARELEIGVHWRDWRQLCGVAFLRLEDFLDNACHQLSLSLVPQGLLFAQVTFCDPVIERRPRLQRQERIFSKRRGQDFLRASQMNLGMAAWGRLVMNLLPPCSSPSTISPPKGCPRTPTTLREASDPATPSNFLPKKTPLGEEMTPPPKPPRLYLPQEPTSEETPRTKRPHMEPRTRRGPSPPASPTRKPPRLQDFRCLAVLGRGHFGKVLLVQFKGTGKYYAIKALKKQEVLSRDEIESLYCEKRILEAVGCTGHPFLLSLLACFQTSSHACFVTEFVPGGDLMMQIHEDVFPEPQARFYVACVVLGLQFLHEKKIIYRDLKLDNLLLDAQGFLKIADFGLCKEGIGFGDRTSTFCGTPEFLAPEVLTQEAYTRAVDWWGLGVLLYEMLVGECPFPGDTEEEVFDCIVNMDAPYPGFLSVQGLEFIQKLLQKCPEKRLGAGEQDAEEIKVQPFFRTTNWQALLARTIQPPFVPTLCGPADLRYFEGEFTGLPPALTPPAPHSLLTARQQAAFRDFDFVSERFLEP

## C=CC(=O)Nc1cccc(Nc2nc(Nc3ccc(OCCOC)c(F)c3)ncc2F)c1 [Compound 2]
PKN3/PRK3
  inhibition at 3 µM: -7.32%
PKN3/PRK3; [1]
  remaining activity at 3 µM: 106%
PKN3/PRK3; [2]
  remaining activity at 3 µM: 108%
RSK2
  inhibition at 3 µM: 16.6%
RSK2; [1]
  remaining activity at 3 µM: 82.6%
RSK2; [2]
  remaining activity at 3 µM: 84.3%
NEK1
  inhibition at 3 µM: 46.6%
NEK1; [1]
  remaining activity at 3 µM: 52.7%
NEK1; [2]
  remaining activity at 3 µM: 54%
ALK5/TGFBR1
  inhibition at 3 µM: -8.03%
ALK5/TGFBR1; [1]
  remaining activity at 3 µM: 106%
ALK5/TGFBR1; [2]
  remaining activity at 3 µM: 110%
TRKB
  inhibition at 3 µM: 14.2%
TRKB; [1]
  remaining activity at 3 µM: 86.5%
TRKB; [2]
  remaining activity at 3 µM: 85%
CDK1/cyclin B
  inhibition at 3 µM: 12.9%
CDK1/cyclin B; [1]
  remaining activity at 3 µM: 87.2%
CDK1/cyclin B; [2]
  remaining activity at 3 µM: 87%
KDR/VEGFR2
  inhibition at 3 µM: 17.7%
KDR/VEGFR2; [1]
  remaining activity at 3 µM: 83.3%
KDR/VEGFR2; [2]
  remaining activity at 3 µM: 81.2%
